Data reported in US8013163B2 (Astex Therapeutics Limited, priority 2005, dated 2011).
Counter-ions that a name gives are not always drawn.

Tests used:
[1] = system: malignant cells from B-cell chronic lymphocytic leukemia (B-CLL); details: in vitro; cited from earlier work
HCT-1 16 cells = assay: Anti-proliferative activity (Alamar Blue assay); format: cell-based; details: Homo sapiens, HCT-116, 72 hours
Description: The anti-proliferative activities of a compound can be determined by measuring the ability of the compound to inhibition of cell growth in a number of cell lines. Inhibition of cell growth is measured using the Alamar Blue assay (Nociari, M. M, Shalev, A., Benias, P., Russo, C. Journal of Immunological Methods 1998, 213, 157-167). The method is based on the ability of viable cells to reduce resazurin to its fluorescent product resorufin. For each proliferation assay cells are plated onto 96 well plates and allowed to recover for 16 hours prior to the addition of inhibitor compounds for a further 72 hours. At the end of the incubation period 10% (v/v) Alamar Blue is added and incubated for a further 6 hours prior to determination of fluorescent product at […]. In the case of the non-proliferating cell assay cells are maintained at confluence for 96 hour prior to the addition of inhibitor compounds for a further 72 hours. The number of viable cells is determined by Alamar Blue assay as before. Cell lines can be obtained from the ECACC (European Collection of cell Cultures).

[2] = Solubility of the mesylate salt in buffered solutions (HPLC assay); format: physicochemical; details: acetate buffer, pH 4.6, aqueous buffer, thermodynamic from solid
Description: An investigation into the solubility of the mesylate salt of Example 1 in various buffering systems was carried out at ambient temperature and at 4° C. In a first set of experiments, the buffers selected were 200 mM succinate pH 5.5, citrate pH 5.5, and Tris/maleate pH 5.5, 6.5 and 7.5. A second set of buffers utilised included a 200 mM acetate pH 4.6, glycine/methanesulphonic acid pH 4.6 and glycine pH 5.5.
This buffer was prepared by dissolving 4.44 g sodium acetate in 200 ml water. A volume (50 ml) of this solution was titrated with 0.20 M acetic acid solution ([…] in 200 ml water) and made up to 200 ml with water. A 0.20 M acetate buffer solution of pH 4.6 was prepared.
With each pH and buffer system, two experiments were performed, one at ambient temperature and one at 4° C. In each experiment, to 4.0 ml buffer solution was added a nominal 220 mg of the mesylate salt and the solution mixture was stirred. The stirring was stopped after 3 hours, the solution filtered through a PVDF 0.22 μm membrane filter, diluted in sample diluent and assayed for mesylate salt content by HPLC. Throughout the experiments, the mesylate salt content of each sample was calculated using single point calibration each time.

[3] = Stability of acetate buffered salt solution (autoclaving, heating, freeze-thaw); format: physicochemical
Description: Autoclaving at 121° C. for 15 minutes, followed by heating the solution further at 40° C., 55° C. or 75° C. for 10-12 days, were carried out on the acetate buffered salt solution.

[4] = Gravimetric Vapour Sorption (GVS) study; format: physicochemical
Description: (i) Gravimetric Vapour Sorption (GVS) studies were carried out to investigate the behaviour of the mesylate salt in conditions of varying humidity. The mesylate salt used in the studies was prepared from the hydrochloride salt (see Example 11) by the following method.
Samples of the mesylate salt produced by the method described above were run on a Hiden IGASorp moisture sorption analyser running CFRSorp software. The sample sizes were typically 10 mg. Moisture adsorption-desorption isotherms were performed as set out in the following table:
A double cycle was run using a sample of 12.92 mg of the mesylate salt. […] However, provided that the salt is not exposed to relative humidities of more than 80%, the water uptake is less than 2.6% w/w. Importantly, water which was taken up during the adsorption stage was lost during the desorption state indicating the uptake of water is a surface effect.

[5] = Solubility of the mesylate salt in aqueous solution at pH 1 to 11 (UV-Vis assay); format: physicochemical
Description: Solutions were prepared by titrating standard hydrochloric acid with dilute sodium hydroxide solution to a desired pH. […] These solutions were then used to assess the solubility of 4-(2,6-dichlorobenzoylamino)-1/i-pyrazole-3-carboxylic acid piperidin-4-ylamide methanesulphonate.
In each experiment, 150 mg of the methanesulphonate salt was weighed into a 5 ml clear vial and 3-4 ml of a solution of a given pH was added. […] In each case, the solution was then filtered through a 0.22 μm PVDF filter, the pH of the clear solution obtained was recorded, and the solution was assayed for methanesulphonate salt content using a UV-Vis spectrophotometer and standard solutions of the salt.

[6] = Exposure at 40° C./approximately 75% relative humidity with XRPD and HPLC analysis; format: physicochemical; details: approximately 75% relative humidity
Description: (ii) In a separate test, approximately 10 mg of the mesylate salt as prepared above was pressed flat onto a glass slide to achieve a high surface area and placed in a dessicator containing a saturated aqueous solution of sodium chloride. This in turn was placed in an incubator held at 40° C. to provide an atmosphere of approximately 75% relative humidity. The sample was removed on 8 and 18 days and the XRPD profiles of the sample at these times were compared to the XRPD profile of the salt prior to commencement of the test.

[7] = Stability trial of methanesulphonate salt at 40° C./75% relative humidity for six months; format: physicochemical
Description: Samples of the methanesulphonate salt of Example 1 were stored in sealed bags inside a sealed container at a temperature of 40° C. and in an atmosphere of 75% relative humidity for a period of six months. At periods of 1 month, 3 months and 6 months, various tests were carried out to determine whether any changes to the purity or physical state of the salt had occurred. The tests were as follows:
(a) Visual examination of the colour and physical appearance of the salt.
(b) Fourier Transform Infra Red (FTIR) spectroscopy—comparison with reference standard spectrum.
(c) Determination of melting point by differential scanning calorimetry (DSC).
(d) Determination of water content by a coulometric method using the coulometric reagent AKX.
(e) Analysis of impurities by HPLC.

[8] = 40° C./75% relative humidity, t = 0
[9] = 40° C./75% relative humidity, t = 1 month
[10] = 40° C./75% relative humidity, t = 3 months
[11] = 40° C./75% relative humidity, t = 6 months

## CC[C@H](CO)Nc1nc(NCc2ccccc2)c2ncn(C(C)C)c2n1 [CYC 202]
[1]
  induction of apoptosis: induce in vitro apoptosis

## CN1CC[C@H](c2c(O)cc(O)c3c(=O)cc(-c4ccccc4Cl)oc23)[C@H](O)C1 [Flavopiridol]
[1]
  induction of apoptosis: induce in vitro apoptosis

## O=C(NC1CCNCC1)c1n[nH]cc1NC(=O)c1c(Cl)cccc1Cl [mesylate salt, 4-(2,6-dichlorobenzoylamino)-1H-pyrazole-3-carboxylic acid piperidin-4-ylamide methanesulphonate]
HCT-1 16 cells
  IC50: 110 nM
[2]; 4 °C, acetate buffer 200 mM at 4° C., initial pH 4.6, final pH 4.6, read-out: [mesylate salt] solubility
  solubility at 3 h: 37.2 mg/mL
[2]; acetate buffer 200 mM at ambient temperature, initial pH 4.6, final pH 4.5, read-out: [Mesylate salt] solubility
  solubility at 3 h: 30.7 mg/mL
[2]; acetic acid/sodium acetate buffer, solution pH approximately 4.6, read-out: solubility
  solubility at 3 h: ~35 mg/mL
[2]; in acetate buffer, read-out: solubility of the mesylate salt
  solubility at 3 h: 32 to 37 mg/mL
[3]; acetate buffered salt solution
  precipitation in freeze-thaw stability tests: did not result in precipitation
  stability of solution pH and salt in freeze-thaw tests: stable
[3]; acetate buffered solution, autoclaving at 121° C. for 15 minutes, then 40° C., 55° C. or 75° C. for 10-12 days
  stability of solution pH and salt: stable
[4]; not exposed to relative humidities of more than 80%
  water uptake (GVS): less than 2.6 % w/w
[4]; over the range 0% relative humidity to 90% relative humidity
  water picked up (GVS isotherm): approximately 4 % in weight
[5]; aqueous solution, 4 °C, pH 0.26, simulated gastric fluid, thermodynamic from solid, initial pH 0.26, final pH 0.26
  solubility at 3 h: 9.85 mg/mL
[5]; aqueous solution, 4 °C, pH 1, simulated gastric fluid, thermodynamic from solid, initial pH 1.00, final pH 1.00
  solubility at 3 h: 39.4 mg/mL
[5]; aqueous solution, 4 °C, pH 2.51, aqueous buffer, thermodynamic from solid, initial pH 2.51, final pH 2.51
  solubility at 3 h: 41.5 mg/mL
[5]; aqueous solution, 4 °C, pH 4.99, aqueous buffer, thermodynamic from solid, initial pH 4.99, final pH 4.99
  solubility at 3 h: 42.4 mg/mL
[5]; aqueous solution, 4 °C, pH 7.34, aqueous buffer, thermodynamic from solid, initial pH 7.34, final pH 7.34
  solubility at 3 h: 45.9 mg/mL
[5]; aqueous solution, 4 °C, pH 7.4, aqueous buffer, thermodynamic from solid, initial pH 9.04, final pH 7.40
  solubility at 3 h: 30.4 mg/mL
[5]; aqueous solution, 4 °C, pH 7.69, aqueous buffer, thermodynamic from solid, initial pH 7.69, final pH 7.69
  solubility at 3 h: 37.9 mg/mL
[5]; aqueous solution, 4 °C, pH 7.9, aqueous buffer, thermodynamic from solid, initial pH 10.97, final pH 7.90
  solubility at 3 h: 30.9 mg/mL
[5]; aqueous solution, 4 °C, pH 8.17, aqueous buffer, thermodynamic from solid, initial pH 8.17, final pH 8.17
  solubility at 3 h: 43.2 mg/mL
[5]; aqueous solution, pH 0.37, simulated gastric fluid, thermodynamic from solid, ambient temperature, initial pH 0.26, final pH 0.37
  solubility at 3 h: 15.7 mg/mL
[5]; aqueous solution, pH 0.504, simulated gastric fluid, thermodynamic from solid, Solution 1 after 6 days in the laboratory, precipitate filtered, pH 0.504 / 0.50
  solubility at 6 days: 13.9 mg/mL
[5]; aqueous solution, pH 1.06, simulated gastric fluid, thermodynamic from solid, ambient temperature, initial pH 1.00, final pH 1.06
  solubility at 3 h: 40.3 mg/mL
[5]; aqueous solution, pH 3, aqueous buffer, thermodynamic from solid, ambient temperature, initial pH 2.51, final pH 3.00
  solubility at 3 h: 44.9 mg/mL
[5]; aqueous solution, pH 6.73, aqueous buffer, thermodynamic from solid, ambient temperature, initial pH 4.99, final pH 6.73
  solubility at 3 h: 44.3 mg/mL
[5]; aqueous solution, pH 7.3, aqueous buffer, thermodynamic from solid, ambient temperature, initial pH 7.34, final pH 7.30
  solubility at 3 h: 44.5 mg/mL
[5]; aqueous solution, pH 7.4, aqueous buffer, thermodynamic from solid, ambient temperature, initial pH 8.17, final pH 7.40
  solubility at 3 h: 44.5 mg/mL
[5]; aqueous solution, pH 7.4, aqueous buffer, thermodynamic from solid, ambient temperature, initial pH 9.04, final pH 7.4
  solubility at 3 h: 35.4 mg/mL
[5]; aqueous solution, pH 7.6, aqueous buffer, thermodynamic from solid, ambient temperature, initial pH 10.97, final pH 7.6
  solubility at 3 h: 34.6 mg/mL
[5]; aqueous solution, pH 7.9, aqueous buffer, thermodynamic from solid, ambient temperature, initial pH 7.69, final pH 7.90
  solubility at 3 h: 42.1 mg/mL
[5]; pH>7 and pH<3, ambient temperature
  behaviour of solution on standing: precipitation of the salt was observed on standing
[6]; 8 and 18 days
  changes in XRPD profile: No changes were observed
[6]; up to 18 days
  degradation by HPLC analysis: no degradation
[7]; 40° C., 75% relative humidity, six months
  overall stability: good stability
[7]; [8]
  (a) Description: Off-white solid
  (b) Identity by FTIR: Conforms to
  (c) Melting point by DSC, melting endotherm: 367.7 °C
  (d) Water content: <0.1% w/w
  (e) Impurities (by HPLC) Total impurities: 0.52% area
  Chemical purity: 99.48% area
  Impurity RRT 0.812 (by HPLC): 0.07% area
  Impurity RRT 1.196 (by HPLC): 0.01% area
  Impurity RRT 1.226 (by HPLC): 0.02% area
  Impurity RRT 1.303 (by HPLC): 0.02% area
  Impurity RRT 1.318 (by HPLC): 0.03% area
  Impurity RRT 1.484 (by HPLC): 0.15% area
  Impurity RRT 1.526 (by HPLC): 0.03% area
  Impurity RRT 1.680 (by HPLC): 0.19% area
[7]; [9]
  (a) Description: Off-white solid
  (b) Identity by FTIR: Conforms to
  (c) Melting point by DSC, melting endotherm: 368.3 °C
  (d) Water content: <0.1% w/w
  (e) Impurities (by HPLC) Total impurities: 0.49% area
  Chemical purity: 99.51% area
  Impurity RRT 0.812 (by HPLC): 0.07% area
  Impurity RRT 1.196 (by HPLC): 0.02% area
  Impurity RRT 1.303 (by HPLC): 0.06% area
  Impurity RRT 1.484 (by HPLC): 0.17% area
  Impurity RRT 1.680 (by HPLC): 0.17% area
[7]; [10]
  (a) Description: Off-white solid
  (b) Identity by FTIR: Conforms to
  (c) Melting point by DSC, melting endotherm: 375.5 °C
  (d) Water content: <0.1% w/w
  (e) Impurities (by HPLC) Total impurities: 0.50% area
  Chemical purity: 99.50% area
  Impurity RRT 0.812 (by HPLC): 0.06% area
  Impurity RRT 1.226 (by HPLC): 0.02% area
  Impurity RRT 1.318 (by HPLC): 0.04% area
  Impurity RRT 1.484 (by HPLC): 0.17% area
  Impurity RRT 1.526 (by HPLC): 0.04% area
  Impurity RRT 1.680 (by HPLC): 0.17% area
[7]; [11]
  (a) Description: Off-white solid
  (b) Identity by FTIR: Conforms to
  (c) Melting point by DSC, melting endotherm: 369.1 °C
  (d) Water content: <0.1% w/w
  (e) Impurities (by HPLC) Total impurities: 0.50% area
  Chemical purity: 99.50% area
  Impurity RRT 0.812 (by HPLC): 0.06% area
  Impurity RRT 1.226 (by HPLC): 0.02% area
  Impurity RRT 1.318 (by HPLC): 0.04% area
  Impurity RRT 1.484 (by HPLC): 0.17% area
  Impurity RRT 1.526 (by HPLC): 0.03% area
  Impurity RRT 1.680 (by HPLC): 0.17% area
  Impurity RRT 1.682 (by HPLC): 0.01% area
